Patent US11667649B2, “Heteroaromatic macrocyclic ether chemotherapeutic agents” (Nuvalent, Inc., priority 2020, dated 2023)

Tested on: TPM3-NTRK1-wt IC50 / primary target (e.g. CD74-ROS1-wt) IC50, Ba/F3 cells
Test: Cell assay TRKA selectivity (TRKA potency divided by primary target potency)
Format: cell-based
Conditions: for TPM3-NTRK1-wt/CD74-ROS1-G2032R: TRKA selectivity ratio: TPM3-NTRK1-wt IC50 / CD74-ROS1-G2032R IC50, Ba/F3 cells; for TPM3-NTRK1-wt/CD74-ROS1-wt: TRKA selectivity ratio: TPM3-NTRK1-wt IC50 / CD74-ROS1-wt IC50, Ba/F3 cells; for TPM3-NTRK1-wt/EML4-ALK-L1196M-G1202R: TRKA selectivity ratio: TPM3-NTRK1-wt IC50 / EML4-ALK-L1196M-G1202R IC50, Ba/F3 cells; for TPM3-NTRK1-wt/EML4-ALK-wt: TRKA selectivity ratio: TPM3-NTRK1-wt IC50 / EML4-ALK-wt IC50, Ba/F3 cells
From the text: Genes encoding CD74-ROS1 wild-type (wt), CD74-ROS1 G2032R, CD74-ROS1 S1986F, CD74-ROS1 L2026M, CD74-ROS1 D2033N, EML4-ALK wt (variant 1), EML4-ALK G1202R (variant 1), EML4-ALK L1196M/G1202R (variant 1), EML4-ALK G1202R/G1269A (variant 1), EML4-ALK G1202R/L1198F (variant 1), and TPM3-TRKA were synthesized at GeneRay, cloned into the retroviral construct pMSCV-puro (Biovector), and packaged into retroviral particles. The virus was used to infect Ba/F3 cells (RIKEN) at multiplicity of infection=1 for 1 day. Infected cells were rescued in media (RPMI-1640 with 10% fetal bovine serum and 1% streptomycin and penicillin) supplemented with mouse IL-3 (10 ng/mL) for 2 days, and stable cell lines were selected by IL-3 withdrawal and puromycin (0.8 μg/mL) for 7 days. Monoclones were selected by single-cell dilution in IL-3-free medium containing puromycin (0.8 μg/mL). Transformation of desired genes was confirmed by Sanger sequencing and western blot using the following antibodies: ROS1 (CST #3287), ALK (CST #3633), and pan-TRK (Abcam #76291).
Stable cells were plated at 1,000 cells/well (40 μL) in a 384-well plate for 1 day. Test compounds (40 nL) were then added in a 3-fold dilution series using the TECAN EVO200 liquid handler and incubated for 72 hours. Plates were equilibrated at room temperature for 15 minutes followed by addition of 40 μL CellTiter-Glo reagent (Promega). Luminescence was measured on a plate reader. Half-maximal inhibitory concentration (IC50) was calculated from percent inhibition and inhibitor concentration using four-parameter logistic regression. […] Exemplary data is given in Table 4 (nd is not determined).
TRKA selectivity was calculated by dividing a compound's TRKA potency by its primary target potency (e.g. TPM3-NTRK1-wt IC50/CD74-ROS1-wt IC50). Compound selectivity can be interpreted by binning ratio values: bin A for very high selectivity, ratio>30-fold; bin B for high selectivity, ratio>10-fold; bin C for moderate selectivity, ratio≥1; and bin D for low selectivity, ratio<1. […] (nd=not determined).

Row | Structure (SMILES) | TPM3-NTRK1-wt/CD74-ROS1-G2032R | TPM3-NTRK1-wt/CD74-ROS1-wt | TPM3-NTRK1-wt/EML4-ALK-L1196M-G1202R | TPM3-NTRK1-wt/EML4-ALK-wt
1 | C[C@H]1Oc2cc(cnc2N)-c2c(C#N)nnn2Cc2cn(C)nc2-c2ccc(F)cc21 [Example 24, (19R)-22-amino-16-fluoro-10,19-dimethyl-20-oxa-4,5,6,10,11,23-hexaazapentacyclo[19.3.1.0^2,^6.0^8,^12.0^13,^18]pentacosa-1(24),2,4,8,11,13,15,17,21(25),22-decaene-3-carbonitrile] | A (bin A for very high selectivity, ratio>30-fold) | A (bin A for very high selectivity, ratio>30-fold) | C (bin C for moderate selectivity, ratio≥1) | A (bin A for very high selectivity, ratio>30-fold)
2 | CCn1nc(OC)c2c1-c1cnc(N)c(c1)O[C@H](C)c1cc(F)ccc1-n1nc(C(F)F)cc1C2 [Example 147, (19R)-10-(difluoromethyl)-3-ethyl-16-fluoro-5-methoxy-19-methyl-20-oxa-3,4,11,12,23-pentaazapentacyclo[19.3.1.0^2,^6.0^8,^12.0^13,^18]pentacosa-1(24),2(6),4,8,10,13,15,17,21(25),22-decaen-22-amine] | A (bin A for very high selectivity, ratio>30-fold) | A (bin A for very high selectivity, ratio>30-fold) | C (bin C for moderate selectivity, ratio≥1) | A (bin A for very high selectivity, ratio>30-fold)
3 | CCc1noc2c1-c1cnc(N)c(c1)O[C@H](C)c1cc(F)ccc1-c1nn(C)cc1C2 [Example 19, (19R)-3-ethyl-16-fluoro-10,19-dimethyl-5,20-dioxa-4,10,11,23-tetraazapentacyclo[19.3.1.0^2,^6.0^8,^12.0^13,^18]pentacosa-1(24),2(6),3,8,11,13,15,17,21(25),22-decaen-22-amine] | A (bin A for very high selectivity, ratio>30-fold) | A (bin A for very high selectivity, ratio>30-fold) | C (bin C for moderate selectivity, ratio≥1) | A (bin A for very high selectivity, ratio>30-fold)
4 | CCc1nnn2c1-c1cnc(N)c(c1)O[C@H](C)c1cc(F)ccc1-c1ncc(F)cc1C2 [Example 16, (20R)-3-ethyl-10,17-difluoro-20-methyl-21-oxa-4,5,6,12,24-pentaazapentacyclo[20.3.1.0^2,^6.0^8,^13.0^14,^19]hexacosa-1(25),2,4,8(13),9,11,14,16,18,22(26),23-undecaen-23-amine] | B (bin B for high selectivity, ratio>10-fold) | A (bin A for very high selectivity, ratio>30-fold) | C (bin C for moderate selectivity, ratio≥1) | B (bin B for high selectivity, ratio>10-fold)
5 | CCn1ncc2c1-c1cnc(N)c(c1)OCc1cc(F)ccc1-c1nn(C)cc1C2 [Example 49, 3-ethyl-16-fluoro-10-methyl-20-oxa-3,4,10,11,23-pentaazapentacyclo[19.3.1.0^2,^6.0^8,^12.0^13,^18]pentacosa-1(24),2(6),4,8,11,13,15,17,21(25),22-decaen-22-amine] | A (bin A for very high selectivity, ratio>30-fold) | A (bin A for very high selectivity, ratio>30-fold) | B (bin B for high selectivity, ratio>10-fold) | A (bin A for very high selectivity, ratio>30-fold)
6 | C[C@H]1Oc2cc(cnc2N)-c2c(nnn2CC2CC2)Cc2cc(Cl)nn2-c2ccc(F)cc21 [Example 108, (19R)-10-chloro-3-(cyclopropylmethyl)-16-fluoro-19-methyl-20-oxa-3,4,5,11,12,23-hexaazapentacyclo[19.3.1.0^2,^6.0^8,^12.0^13,^18]pentacosa-1(24),2(6),4,8,10,13,15,17,21(25),22-decaen-22-amine] | A (bin A for very high selectivity, ratio>30-fold) | A (bin A for very high selectivity, ratio>30-fold) | B (bin B for high selectivity, ratio>10-fold) | A (bin A for very high selectivity, ratio>30-fold)
7 | C[C@H]1Oc2cc(cnc2N)-c2c(cnn2CC2CC2)Cc2cccnc2-c2ccc(F)cc21 [Example 137, (20R)-3-(cyclopropylmethyl)-17-fluoro-20-methyl-21-oxa-3,4,12,24-tetraazapentacyclo[20.3.1.0^2,^6.0^8,^13.0^14,^19]hexacosa-1(25),2(6),4,8(13),9,11,14,16,18,22(26),23-undecaen-23-amine] | A (bin A for very high selectivity, ratio>30-fold) | A (bin A for very high selectivity, ratio>30-fold) | A (bin A for very high selectivity, ratio>30-fold) | A (bin A for very high selectivity, ratio>30-fold)
8 | CCn1nnc2c1-c1cnc(N)c(c1)O[C@H](C)c1cc(F)ccc1-c1nc(C)sc1C2 [Example 78, (19R)-3-ethyl-16-fluoro-10,19-dimethyl-20-oxa-9-thia-3,4,5,11,23-pentaazapentacyclo[19.3.1.0^2,^6.0^8,^12.0^13,^18]pentacosa-1(24),2(6),4,8(12),10,13,15,17,21(25),22-decaen-22-amine] | A (bin A for very high selectivity, ratio>30-fold) | A (bin A for very high selectivity, ratio>30-fold) | B (bin B for high selectivity, ratio>10-fold) | A (bin A for very high selectivity, ratio>30-fold)
9 | CCc1noc2c1-c1cnc(N)c(c1)O[C@H](C)c1cc(F)cc(F)c1-c1nn(C)cc1C2 [Example 90, (19R)-3-ethyl-14,16-difluoro-10,19-dimethyl-5,20-dioxa-4,10,11,23-tetraazapentacyclo[19.3.1.0^2,^6.0^8,^12.0^13,^18]pentacosa-1(24),2(6),3,8,11,13,15,17,21(25),22-decaen-22-amine] | A (bin A for very high selectivity, ratio>30-fold) | A (bin A for very high selectivity, ratio>30-fold) | C (bin C for moderate selectivity, ratio≥1) | A (bin A for very high selectivity, ratio>30-fold)
10 | CCn1ncc2c1-c1cnc(N)c(c1)O[C@H](C)c1cc(F)ccc1-c1nc(OC)ccc1C2 [Example 145, (20R)-3-ethyl-17-fluoro-11-methoxy-20-methyl-21-oxa-3,4,12,24-tetraazapentacyclo[20.3.1.0^2,^6.0^8,^13.0^14,^19]hexacosa-1(25),2(6),4,8(13),9,11,14,16,18,22(26),23-undecaen-23-amine] | A (bin A for very high selectivity, ratio>30-fold) | A (bin A for very high selectivity, ratio>30-fold) | C (bin C for moderate selectivity, ratio≥1) | A (bin A for very high selectivity, ratio>30-fold)
